Laboratory results taken from the OligoGym collection.
HELM strings list units from the 5' end as sugar, base in round brackets, then linkage (d deoxyribose, r ribose, m 2'-O-methyl, p phosphodiester). Strings are as the collection lists them; they lack the last nucleoside at the 3' end of the tested compound. [moe] = 2'-O-(2-methoxyethyl) (MOE); [sp] = phosphorothioate linkage; [m5C] = 5-methylcytosine

Molecular target: HTT
Experiment: mouse, dose not given
Details: ASO

Substance | 3 h FOB score [score 0-7]
RNA1{[moe](G)[sp].[moe]([m5C])p.[moe](A)[sp].[moe](T)[sp].[moe](T)[sp].d(A)[sp].d([m5C])[sp].d(T)[sp].d(T)[sp].d(T)[sp].d(T)[sp].d(T)[sp].d(A)[sp].d([m5C])[sp].d(A)[sp].[moe](A)[sp].[moe](T)p.[moe](G)[sp].[moe](G)}$$$$ (last 3' nucleoside missing) | 5.25
RNA1{[moe]([m5C])[sp].[moe](T)p.[moe](A)p.[moe](G)p.[moe](A)[sp].d(G)[sp].d(G)[sp].d(T)[sp].d([m5C])[sp].d(A)[sp].d(T)[sp].d([m5C])[sp].d(T)[sp].d(T)[sp].d([m5C])[sp].[moe](G)p.[moe](G)p.[moe](T)[sp].[moe]([m5C])}$$$$ (last 3' nucleoside missing) | 2
RNA1{[moe]([m5C])[sp].[moe](T)p.[moe](T)p.[moe](G)p.[moe](G)p.[moe](T)p.d(T)[sp].d(A)[sp].d(G)[sp].d(T)[sp].d(T)[sp].d(T)[sp].d(T)[sp].d([m5C])[sp].d([m5C])[sp].d(T)[sp].[moe](T)p.[moe](T)[sp].[moe](T)}$$$$ (last 3' nucleoside missing) | 4.25
RNA1{[moe](G)[sp].[moe]([m5C])p.[moe](T)p.[moe](T)p.[moe](T)p.[moe](G)p.d(A)[sp].d(T)[sp].d(T)[sp].d(T)[sp].d(T)[sp].d(T)[sp].d(A)[sp].d([m5C])[sp].d([m5C])[sp].d(A)[sp].[moe](G)p.[moe](T)[sp].[moe](T)}$$$$ (last 3' nucleoside missing) | 0.5
RNA1{[moe](G)[sp].[moe]([m5C])p.[moe](A)p.[moe](T)p.[moe](T)[sp].d(A)[sp].d([m5C])[sp].d(T)[sp].d(T)[sp].d(T)[sp].d(T)[sp].d(T)[sp].d(A)[sp].d([m5C])[sp].d(A)[sp].[moe](A)p.[moe](T)p.[moe](G)[sp].[moe](G)}$$$$ (last 3' nucleoside missing) | 1
RNA1{[moe](T)[sp].[moe](G)p.[moe]([m5C])p.[moe](A)p.[moe](T)p.[moe](T)p.d(A)[sp].d([m5C])[sp].d(T)[sp].d(T)[sp].d(T)[sp].d(T)[sp].d(T)[sp].d(A)[sp].d([m5C])[sp].d(A)[sp].[moe](A)p.[moe](T)[sp].[moe](G)}$$$$ (last 3' nucleoside missing) | 6.5
RNA1{[moe](A)[sp].[moe]([m5C])p.[moe](A)p.[moe](G)p.[moe]([m5C])[sp].d(T)[sp].d(T)[sp].d(T)[sp].d(T)[sp].d(A)[sp].d(T)[sp].d(T)[sp].d(T)[sp].d([m5C])[sp].d([m5C])[sp].[moe](A)p.[moe](T)p.[moe](A)[sp].[moe]([m5C])}$$$$ (last 3' nucleoside missing) | 1
RNA1{[moe](T)[sp].[moe](T)p.[moe](G)p.[moe](G)p.[moe](T)p.[moe](T)p.d(A)[sp].d(G)[sp].d(T)[sp].d(T)[sp].d(T)[sp].d(T)[sp].d([m5C])[sp].d([m5C])[sp].d(T)[sp].d(T)[sp].[moe](T)p.[moe](T)[sp].[moe](A)}$$$$ (last 3' nucleoside missing) | 0
RNA1{[moe](G)[sp].[moe]([m5C])p.[moe]([m5C])p.[moe](A)p.[moe](T)[sp].d(A)[sp].d(T)[sp].d(T)[sp].d(T)[sp].d(T)[sp].d([m5C])[sp].d(T)[sp].d([m5C])[sp].d(A)[sp].d(A)[sp].[moe]([m5C])p.[moe](T)p.[moe](T)[sp].[moe](T)}$$$$ (last 3' nucleoside missing) | 0
RNA1{[moe](G)[sp].[moe](T)p.[moe](G)p.[moe]([m5C])p.[moe](A)p.[moe](T)p.d(T)[sp].d(A)[sp].d([m5C])[sp].d(T)[sp].d(T)[sp].d(T)[sp].d(T)[sp].d(T)[sp].d(A)[sp].d([m5C])[sp].[moe](A)p.[moe](A)[sp].[moe](T)}$$$$ (last 3' nucleoside missing) | 3
RNA1{[moe]([m5C])[sp].[moe](A)p.[moe]([m5C])p.[moe](T)p.[moe]([m5C])[sp].d(A)[sp].d(T)[sp].d(T)[sp].d(T)[sp].d([m5C])[sp].d([m5C])[sp].d(A)[sp].d([m5C])[sp].d([m5C])[sp].d(T)[sp].[moe](T)p.[moe]([m5C])p.[moe](A)[sp].[moe](G)}$$$$ (last 3' nucleoside missing) | 0
RNA1{[moe]([m5C])[sp].[moe](A)p.[moe]([m5C])p.[moe](A)p.[moe](G)p.[moe]([m5C])p.d(T)[sp].d(T)[sp].d(T)[sp].d(T)[sp].d(A)[sp].d(T)[sp].d(T)[sp].d(T)[sp].d([m5C])[sp].d([m5C])[sp].[moe](A)p.[moe](T)[sp].[moe](A)}$$$$ (last 3' nucleoside missing) | 0
RNA1{[moe](G)[sp].[moe](T)p.[moe](G)p.[moe]([m5C])p.[moe](A)[sp].d(T)[sp].d(T)[sp].d(A)[sp].d([m5C])[sp].d(T)[sp].d(T)[sp].d(T)[sp].d(T)[sp].d(T)[sp].d(A)[sp].[moe]([m5C])p.[moe](A)p.[moe](A)[sp].[moe](T)}$$$$ (last 3' nucleoside missing) | 1.25
RNA1{[moe](A)[sp].[moe](T)p.[moe]([m5C])p.[moe]([m5C])p.[moe](A)[sp].d(G)[sp].d(A)[sp].d(T)[sp].d(T)[sp].d(A)[sp].d(T)[sp].d(A)[sp].d([m5C])[sp].d(A)[sp].d(T)[sp].[moe]([m5C])p.[moe](T)p.[moe]([m5C])[sp].[moe]([m5C])}$$$$ (last 3' nucleoside missing) | 0
RNA1{[moe](A)[sp].[moe]([m5C])p.[moe](A)p.[moe](G)p.[moe]([m5C])p.[moe](T)p.d(T)[sp].d(T)[sp].d(T)[sp].d(A)[sp].d(T)[sp].d(T)[sp].d(T)[sp].d([m5C])[sp].d([m5C])[sp].d(A)[sp].[moe](T)p.[moe](A)[sp].[moe]([m5C])}$$$$ (last 3' nucleoside missing) | 0
RNA1{[moe](G)[sp].[moe](G)p.[moe](T)p.[moe]([m5C])p.[moe](A)[sp].d([m5C])[sp].d(A)[sp].d(G)[sp].d([m5C])[sp].d(T)[sp].d(T)[sp].d(T)[sp].d(T)[sp].d(A)[sp].d(T)[sp].[moe](T)p.[moe](T)p.[moe]([m5C])[sp].[moe]([m5C])}$$$$ (last 3' nucleoside missing) | 0
RNA1{[moe]([m5C])[sp].[moe](A)p.[moe]([m5C])p.[moe](A)p.[moe](G)[sp].d([m5C])[sp].d(T)[sp].d(T)[sp].d(T)[sp].d(T)[sp].d(A)[sp].d(T)[sp].d(T)[sp].d(T)[sp].d([m5C])[sp].[moe]([m5C])p.[moe](A)p.[moe](T)[sp].[moe](A)}$$$$ (last 3' nucleoside missing) | 0
RNA1{[moe](T)[sp].[moe]([m5C])p.[moe]([m5C])p.[moe](T)p.[moe]([m5C])[sp].d(T)[sp].d(T)[sp].d(T)[sp].d([m5C])[sp].d(A)[sp].d([m5C])[sp].d(T)[sp].d(G)[sp].d([m5C])[sp].d(T)[sp].[moe](T)p.[moe]([m5C])p.[moe](T)[sp].[moe](A)}$$$$ (last 3' nucleoside missing) | 3
